Read-outs that look alike come from different tables or passages of the source. Starred links: 1 amine or outer side, 2 acyl side, 3 side chain; linkers in the order of their positions; H or OH if unused. Positions of bridges follow the written chain, without caps; N, C: chain ends. Non-standard residues stand in square brackets, D forms with d. Residues, ends and D or L forms follow the SMILES beside them. Groups on a side chain read outwards from the residue. *: point of attachment. Trp(1-Me) = Cn1cc(C[C@H](N)C(=O)O)c2ccccc21; C18 diacid = O=C(O)CCCCCCCCCCCCCCCCC(=O)*; γGlu = O=C(O)[C@H](CCC(=O)[*:2])N[*:1]; AEEA = NCCOCCOCC(=O)O; Sar = CNCC(=O)O
Columns and labels:
[1] = tested on: classical complement pathway; assay: In vitro haemolysis assay (inhibition of classical complement pathway); assay type: cell-based, human
How it was run: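 Serially diluted compound (9 points) was preincubated 15 min at room temperature with diluted human serum, titrated per batch to give 70-90% maximal haemolysis, in Tris/casein buffer pH 7.4 with Mg2+/Ca2+. Antibody-sensitized sheep erythrocytes were then added for 30 min at 37° C, and the reaction was stopped with EDTA. Haemolysis was read at A405, with IC50 from 4PL fit.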

[2] = Solubility test at 10 mg/mL (visual inspection and light scattering); assay type: physicochemical; details: for Solubility, Condition 1 Acetate pH 4: 10 mg/mL compound in 100 mM acetate pH 4; for Solubility, Condition 2 Acetate pH 5: 10 mg/mL compound in 100 mM acetate pH 5; for Solubility, Condition 3 Phosphate pH 6: 10 mg/mL compound in 100 mM phosphate pH 6; for Solubility, Condition 4 Phosphate pH 7: 10 mg/mL compound in 100 mM phosphate pH 7; for Solubility, Condition 5 Phosphate pH 7.5: 10 mg/mL compound in 100 mM phosphate pH 7.5
Experimental: The solubility of compounds was assessed by measuring light scattering over a pH interval from pH 4 to pH 7.5.
Compounds were dissolved in a stock solution of 20 mg/mL in H2O at pH 2.5 or pH 10.
These stock solutions were diluted 1:1 with 200 mM buffered solution to reach a final solution of 10 mg/mL compound in 100 mM buffer. The 5 investigated conditions were (1) acetate pH 4.0, (2) acetate pH 5.0, (3) phosphate pH 6.0, (4) phosphate pH 7 and (5) phosphate pH 7.5.
Visual inspection included manually checking the 96 well plate for wells that are clear or non-clear. In addition to this a picture of the 96 well plate is taken.
Absorbance was measured at four wavelengths: 280 nm, 325 nm, 340 nm and 360 nm in an UV transparent 96 well microplate in a SpectraMax 190 microplate reader (Molecular Devices).
The criteria for this was a combination of visual inspection and light scattering not exceeding 0.1 AU, where values below 0.1 AU are good in visually clear samples. […]

[3] = Table 3, human serum, sensitized sheep red blood cells, read-out: IC50[nM], in vitro analysis of inhibition of hemolysis

Structure (SMILES): CC[C@H](C)[C@@H]1NC(=O)[C@@H](NC(=O)[C@H](Cc2ccccc2)NC(=O)[C@H](CCC(=O)O)NC(=O)[C@H](CO)NC(C)=O)CSSC[C@@H](C(=O)N[C@H](C(=O)N[C@@H](CCC(=O)O)C(=O)N[C@@H](C)C(N)=O)[C@@H](C)O)NC(=O)[C@H](CCCNC(=N)N)NC(=O)[C@H](Cc2c[nH]cn2)NC(=O)[C@H](CCC(=O)O)NC(=O)CN(C)C(=O)[C@H](Cc2c[nH]c3ccccc23)NC(=O)[C@H](CC(=O)O)NC(=O)[C@H](CCC(N)=O)NC(=O)[C@H](Cc2cn(C)c3ccccc23)NC1=O [Compound 77, Ac-SEFC(1)I[1-Me-Trp]QDW[Sar]EHRC(1)TEA-NH2] (Ac-SEFCI[Trp(1-Me)]QDW[Sar]EHRCTEA-NH2; disulfide 4-14)
- IC50 [1, 3]: < 100 nM
- Solubility, Condition 1 Acetate pH 4 [2]: − (denotes lack of solubility at the given condition, as UV absorbance at 340 nm exceeds 0.1 AU and/or it is visibly turbid or contains particles.)
- Solubility, Condition 2 Acetate pH 5 [2]: − (denotes lack of solubility at the given condition, as UV absorbance at 340 nm exceeds 0.1 AU and/or it is visibly turbid or contains particles.)
- Solubility, Condition 3 Phosphate pH 6 [2]: + (denotes solubility at the given condition, as determined by UV absorbance being less than 0.1 AU at 340 nm and the sample being clear when manually inspected.)
- Solubility, Condition 4 Phosphate pH 7 [2]: + (denotes solubility at the given condition, as determined by UV absorbance being less than 0.1 AU at 340 nm and the sample being clear when manually inspected.)
- Solubility, Condition 5 Phosphate pH 7.5 [2]: + (denotes solubility at the given condition, as determined by UV absorbance being less than 0.1 AU at 340 nm and the sample being clear when manually inspected.)

Structure (SMILES): CC[C@H](C)[C@H](NC(=O)[C@H](C)NC(=O)[C@H](CO)NC(=O)CNC(=O)[C@H](CCC(=O)O)NC(C)=O)C(=O)N[C@H]1CSSC[C@@H](C(=O)N(C)CC(=O)N[C@@H](CCC(=O)O)C(=O)NCC(=O)N[C@@H](CCC(=O)O)C(N)=O)NC(=O)[C@H](CCCNC(=N)N)NC(=O)[C@H](Cc2c[nH]cn2)NC(=O)[C@H](CCC(=O)O)NC(=O)CNC(=O)[C@H](Cc2c[nH]c3ccccc23)NC(=O)[C@H](CC(=O)O)NC(=O)[C@H](CCC(N)=O)NC(=O)[C@H](Cc2c[nH]c3ccccc23)NC(=O)[C@H]([C@@H](C)CC)NC1=O [Compound 44] (Ac-EGSAICIWQDWGEHRC[Sar]EGE-NH2; disulfide 6-16)
- IC50 [1, 3]: < 250 nM
- Solubility, Condition 1 Acetate pH 4 [2]: − (denotes lack of solubility at the given condition, as UV absorbance at 340 nm exceeds 0.1 AU and/or it is visibly turbid or contains particles.)
- Solubility, Condition 2 Acetate pH 5 [2]: − (denotes lack of solubility at the given condition, as UV absorbance at 340 nm exceeds 0.1 AU and/or it is visibly turbid or contains particles.)
- Solubility, Condition 3 Phosphate pH 6 [2]: + (denotes solubility at the given condition, as determined by UV absorbance being less than 0.1 AU at 340 nm and the sample being clear when manually inspected.)
- Solubility, Condition 4 Phosphate pH 7 [2]: + (denotes solubility at the given condition, as determined by UV absorbance being less than 0.1 AU at 340 nm and the sample being clear when manually inspected.)
- Solubility, Condition 5 Phosphate pH 7.5 [2]: + (denotes solubility at the given condition, as determined by UV absorbance being less than 0.1 AU at 340 nm and the sample being clear when manually inspected.)

Structure (SMILES): CC[C@H](C)[C@H](NC(C)=O)C(=O)N[C@H]1CSSC[C@@H](C(=O)N[C@H](C(=O)N[C@@H](CCC(=O)O)C(=O)N[C@@H](C)C(N)=O)[C@@H](C)O)NC(=O)[C@H](CCCNC(=N)N)NC(=O)[C@H](Cc2c[nH]cn2)NC(=O)[C@H](CCC(=O)O)NC(=O)CNC(=O)[C@H](Cc2c[nH]c3ccccc23)NC(=O)[C@H](CC(=O)O)NC(=O)[C@H](CCC(N)=O)NC(=O)[C@H](Cc2c[nH]c3ccccc23)NC(=O)[C@H]([C@@H](C)CC)NC1=O [Compound 25] (Ac-ICIWQDWGEHRCTEA-NH2; disulfide 2-12)
- IC50 [1, 3]: < 100 nM
- Solubility, Condition 1 Acetate pH 4 [2]: + (denotes solubility at the given condition, as determined by UV absorbance being less than 0.1 AU at 340 nm and the sample being clear when manually inspected.)
- Solubility, Condition 2 Acetate pH 5 [2]: − (denotes lack of solubility at the given condition, as UV absorbance at 340 nm exceeds 0.1 AU and/or it is visibly turbid or contains particles.)
- Solubility, Condition 3 Phosphate pH 6 [2]: − (denotes lack of solubility at the given condition, as UV absorbance at 340 nm exceeds 0.1 AU and/or it is visibly turbid or contains particles.)
- Solubility, Condition 4 Phosphate pH 7 [2]: + (denotes solubility at the given condition, as determined by UV absorbance being less than 0.1 AU at 340 nm and the sample being clear when manually inspected.)
- Solubility, Condition 5 Phosphate pH 7.5 [2]: + (denotes solubility at the given condition, as determined by UV absorbance being less than 0.1 AU at 340 nm and the sample being clear when manually inspected.)

Structure (SMILES): CC[C@H](C)[C@@H]1NC(=O)[C@@H](NC(=O)[C@H](Cc2ccccc2)NC(=O)[C@H](CCC(=O)O)NC(C)=O)CSSC[C@@H](C(=O)N(C)CC(=O)N[C@@H](CCC(=O)O)C(=O)N[C@@H](C)C(=O)NCCOCCOCC(=O)NCCOCCOCC(=O)N[C@@H](CCCCNC(=O)CC[C@H](NC(=O)CNC(=O)CC[C@H](NC(=O)CCCCCCCCCCCCCCCCC(=O)O)C(=O)O)C(=O)O)C(N)=O)NC(=O)[C@H](CCCNC(=N)N)NC(=O)[C@H](Cc2c[nH]cn2)NC(=O)[C@H](CCC(=O)O)NC(=O)CNC(=O)[C@H](Cc2c[nH]c3ccccc23)NC(=O)[C@H](CC(=O)O)NC(=O)[C@H](CCC(N)=O)NC(=O)[C@H](Cc2cn(C)c3ccccc23)NC1=O [Compound 145] (Ac-EFCI[Trp(1-Me)]QDWGEHRC[Sar]EA[AEEA][AEEA]K([γGlu-Gly-γGlu-C18 diacid])-NH2; disulfide 3-13)
- IC50 [1, 3]: < 100 nM

Structure (SMILES): CC[C@H](C)[C@H](NC(C)=O)C(=O)N[C@H]1CSSC[C@@H](C(=O)N[C@H](C(N)=O)[C@@H](C)O)NC(=O)[C@H](CCCNC(=N)N)NC(=O)[C@H](Cc2c[nH]cn2)NC(=O)[C@H](CO)NC(=O)CNC(=O)[C@H](Cc2c[nH]c3ccccc23)NC(=O)[C@H](CC(=O)O)NC(=O)[C@H](CCC(N)=O)NC(=O)[C@H](Cc2c[nH]c3ccccc23)NC(=O)[C@H]([C@@H](C)CC)NC1=O [Compound 6] (Ac-ICIWQDWGSHRCT-NH2; disulfide 2-12)
- IC50 [1, 3]: < 250 nM
- IC50 ([1]; Table 4, valine 3 versus isoleucine 3 pairs, read-out: CP hemolysis IC50): 140 nM

Structure (SMILES): CC[C@H](C)[C@@H]1NC(=O)[C@@H](NC(=O)[C@H](Cc2ccccc2)NC(=O)[C@H](CCC(=O)O)NC(=O)[C@H](CO)NC(C)=O)CSSC[C@@H](C(=O)N(C)CC(=O)N[C@@H](CCC(=O)O)C(=O)NCC(=O)N[C@@H](CCC(=O)O)C(=O)NCC(=O)NCC(=O)NCC(=O)N[C@@H](CCCCNC(=O)CC[C@H](NC(=O)CNC(=O)CC[C@H](NC(=O)CCCCCCCCCCCCCCCCC(=O)O)C(=O)O)C(=O)O)C(N)=O)NC(=O)[C@H](CCCNC(=N)N)NC(=O)[C@H](Cc2c[nH]cn2)NC(=O)[C@H](CCC(=O)O)NC(=O)CNC(=O)[C@H](Cc2c[nH]c3ccccc23)NC(=O)[C@H](CC(=O)O)NC(=O)[C@H](CCC(N)=O)NC(=O)[C@H](Cc2cn(C)c3ccccc23)NC1=O [Compound 129] (Ac-SEFCI[Trp(1-Me)]QDWGEHRC[Sar]EGEGGGK([γGlu-Gly-γGlu-C18 diacid])-NH2; disulfide 4-14)
- IC50 [1, 3]: < 100 nM

Reference: patent US20220306695A1, “COMPSTATIN ANALOGUES AND THEIR MEDICAL USES” (priority 2019, published 2022)
